“Also recorded” adds a separate entry of the source.
Experiments:
human islets = assay: Glucose-stimulated insulin secretion of purified human cadaveric islets ex vivo; type: cell-based; conditions: stimulation by high concentrations of glucose
Method: Human islet tissue and glucose-stimulated insulin secretion. The islet tissue used in these studies was obtained with institutional review board approval. Pancreas digestion and islet isolation were performed using minor modifications of the Edmonton purification protocol. (Shapiro, […] al. “Islet […] in seven patients with type I diabetes mellitus using a glucocortoid-free immunosuppressive regimen.” New England Journal of Medicine 343(4):230-8, (2000)) The determination of islet cell mass, viability, and purity were also performed. Purified islets were cultured in CMRL 1066 culture media with 10% fetal bovine serum at 37° C. in humidified air (5% CO2) for 18 to 24 hours. The human islet insulin secretory response was performed according to a procedure described by the Edmonton group. (Id.) Briefly, after an overnight culture, islets were incubated with either low or high concentrations of glucose for 2 hours at 37° C. and 5% CO2. The supernatant was collected for insulin measurement. Insulin concentrations in these experiments were analyzed with a human insulin enzyme-linked immunosorbent assay (ELISA) kit (ALPCO Insulin ELISA kit, Windham, N.H.). In some experiments TBZ, DTBZ or epinephrine was added to the cultures before glucose stimulation.

Lewis rats [1] = assay: IPGTT after 2 mg/kg i.v. of VMAT2 ligands (FIG. 10); type: in vivo, rat; conditions: 2 mg/kg body weight i.v.; for blood glucose levels during IPGTT: around sixty minutes following glucose challenge; for area under the curve in the IPGTT: following glucose challenge; for blood glucose excursion during IPGTT: vs vehicle (DMSO)
Method: Experimental animals. All animal studies were conducted as described in Example 1.
Anaesthetized rats were administered TBZ, THB, butamol, reserpine, emetine, or Compound 6 at a dose of approximately 2-3 mg/kg body weight by intravenous (i.v.) injection using the penile vein. TBZ, THB, butamol, reserpine, emetine, and Compound 6 were each separately dissolved in neat sterile dimethylsulfoxide (DMSO) and diluted (always more than 10 fold) in sterile saline. Rats received injections of vehicle alone (10% DMSO in saline) or reserpine (in saline). Animals recovered fully before receiving IPGTT.
(§1) Blood glucose, insulin, glucagon and intraperitoneal glucose tolerance tests measurements. Blood samples were collected from a superficial blood vessel in the tails of the rats following 6 hours of fasting between 12:00 noon and 2:00 p.m. The fasting blood glucose (BG) levels of the rats were measured using an Accu-Check blood glucose monitoring system (Roche Diagnostics, Sommerville, N.J.). Intraperitoneal glucose tolerance tests (IPGTT) were performed in 6 hour fasting un-anaesthetized animals. Briefly, after baseline BG measurements, animals received an intraperitoneal (i.p.) injection of 1 gram glucose/kilogram body weight. To minimize stress during the procedure, rats were handled by the same operator during acclimatization and later during weighing and IPGTT. Blood samples (approximately 30 μl) were collected at baseline and then again 15, 30, 45, 60, 90, and 120 minutes following i.p. glucose. BG concentrations were measured immediately on these samples and the remainder processed.

Lewis rats [2] = assay: IPGTT with TBZ, emetine and Compound 6 (FIG. 12); type: in vivo, rat; conditions: single dose 2-3 mg/kg body weight; for area under the curve from IPGTT: separate experiments
Method: as §1, with “Experimental animals. All animal studies were conducted as described in Example 1. […] Rats received injections of vehicle alone (10% DMSO in saline) or reserpine (in saline). Animals recovered fully before receiving IPGTT. Blood glucose,” for “Blood glucose,”, “tests measurements. […] The fasting” for “tests measurements. Blood samples were collected from a superficial blood vessel in the tails of the rats following 6 hours of fasting between 12:00 noon and 2:00 p.m. The fasting”

Lewis rats [3] = assay: Intraperitoneal glucose tolerance test (IPGTT) in normal Lewis rats after a single i.v. dose; type: in vivo, rat; conditions: 25 μg/gbm, single concentration; data not shown
Method: Experimental animals. All animal studies were reviewed and approved by the Institutional Animal Care and Use Committee (IACUC) at Columbia University's Medical School. All experiments were performed in accordance with the IACUC approved procedures. Normal male Lewis rats (100-400 grams) were obtained from Taconic (Taconic Inc., Germantown, N.Y.) and were housed under conditions of controlled humidity (55±5%), temperature (23±1° C.), and lighting (light on: 06.00-18.00 hours) with free access to standard laboratory rat chow and water. Rats were handled daily to minimize nonspecific stress for more than 7 days before the experiments began. In most experiments, it was necessary to measure blood glucose in fasting animals. For these groups, food was removed at the beginning of the light cycle, 6 hours before glucose levels were measured. Diabetes mellitus was induced by intraperitoneal injection of streptozotocin (Sigma Chemical Co., St. Louis, Mo.) (25 to 50 mg/kg) to animals (100 to 150 grams) that had been fasted 4 hours to enhance the effectiveness of STZ treatment.
The STZ solution was prepared fresh by dissolving it in 0.1 M citrate buffer (pH 5.5) and terminally sterile filtered. Control Lewis age and weight matched rats received a 0.5 ml/kg citrate vehicle alone via intraperitoneal injection. Sixty minutes prior to intraperitoneal glucose tolerance testing (IPGTT), anesthesia of male Lewis rats was induced with isoflurane (3-4% in oxygen) and maintained with 1-2% isoflurane in oxygen. Anaesthetized rats were administered TBZ at the indicated dose by intravenous (i.v.) injection using the penile vein. TBZ was dissolved in neat sterile dimethylsulfoxide (DMSO) and diluted (always more than 10 fold) in sterile saline. Rats received injections of vehicle alone (10% DMSO in saline) or reserpine (in saline). Animals recovered fully before receiving IPGTT.
as §1, with “30,” for “30, 45,”, “glucose administration.” for “glucose.”
Plasma was immediately separated by centrifugation at 3000×g for 15 minutes and then stored at −20° C. until analysis. Insulin and glucagon concentration measurements in rat plasma were performed by ELISA as per the manufacturer's instructions using kits from Linco Research Inc. (St. Charles, Mo.) and Alpco Diagnostics (Salem, N.H.), respectively. To validate the test, saline injections were performed by the same method. […] The area under the IPGTT glucose concentration×time curve (AUCIPGTT) was calculated by the trapezoidal rule. The area under the insulin or glucagon concentration×time curve (AUC INS or AUC GCG) was calculated in a similar manner.

| SMILES | blood glucose levels during IPGTT (Lewis rats [1]) | area under the curve in the IPGTT (Lewis rats [1]) | blood glucose excursion during IPGTT (Lewis rats [1]) | other results |
| --- | --- | --- | --- | --- |
| COc1cc2c(cc1OC)[C@H]1C[C@@H](O)[C@H](CC(C)C)CN1CC2 [DTBZ, dihydrotetrabenazine] | – | – | – | insulin secreted by human islets in culture (human islets): enhances glucose-stimulated insulin secretion; also recorded: significantly enhanced |
| CC[C@H]1CN2CCc3cc(OC)c(OC)cc3[C@@H]2C[C@@H]1C[C@H]1NCCc2cc(OC)c(OC)cc21 [emetine] | returned to control or near normal levels | smaller area under the curve | reduced the blood glucose excursion | blood glucose excursion during IPGTT (Lewis rats [2]): consistently reduced the blood glucose excursion; area under the curve from IPGTT (Lewis rats [2]): consistently suppressed the area under the curve; area under the curve from IPGTT (Lewis rats [2]; listed as emitine): depress the area under the curve |
| COc1cc2c(cc1OC)C1CC(N)C(CC(C)C)CN1CC2 (stereo not drawn) [Compound 6, 3-isobutyl-9,10-dimethoxy-2,3,4,6,7,11b-hexahydro-1H-pyrido[2,1-a]isoquinolin-2-amine] | – | – | – | blood glucose excursion during IPGTT (Lewis rats [2]): consistently reduced the blood glucose excursion; area under the curve from IPGTT (Lewis rats [2]): depress the area under the curve; also recorded: consistently suppressed the area under the curve |
| CC(C)(C)NCC(O)c1ccc(O)c(CO)c1 (stereo not drawn) [butamol] | returned to control or near normal levels | smaller area under the curve | does not reduce the blood glucose excursion; also recorded: did not reduce the blood glucose excursion | – |
| CNC[C@H](O)c1ccc(O)c(O)c1 [epinephrine, L-epinephrine bitartrate] | – | – | – | insulin secreted by human islets in culture (human islets): inhibited secretion of insulin |
| COc1ccc2c(c1OC)CN1CCc3cc4c(cc3C1C2)OCO4 (stereo not drawn) [THB, tetrahydroberberine] | returned to control or near normal levels | smaller area under the curve | reduced the blood glucose excursion | – |
| COC(=O)[C@H]1[C@H]2C[C@@H]3c4[nH]c5cc(OC)ccc5c4CCN3C[C@H]2C[C@@H](OC(=O)c2cc(OC)c(OC)c(OC)c2)[C@@H]1OC [reserpine] | returned to control or near normal levels | smaller area under the curve | reduced the blood glucose excursion | AUC IPGTT relative to untreated controls (Lewis rats [3]): larger AUC IPGTT; blood glucose in IPGTT (Lewis rats [3]): persistent hyperglycemia |
